{
  "source": "patent US20120121540A1",
  "about": "(priority 2007, published 2012)",
  "assay": "HCV replicon assay (luciferase reporter, ET cell line)",
  "type": "cell-based",
  "settings": "Hepatitis C virus, HCV replicon luciferase activity in ET cells",
  "in_short": "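EC50 and, via WST-1 cytotoxicity, TC50 were fitted with a Hill-coefficient equation to % inhibition across 10 two-fold dilutions. Compounds at 0.1 nM-[…] with 0.5% DMSO were applied 24 h post-seeding to replicon-bearing ET cells (luc-ubi-neo/NS3-5B, adaptive mutations). Firefly luciferase signal was measured after 48-72 h.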",
  "data": [
    {"compound": "O=C(c1nc2c(C(F)(F)F)cc(-c3cccc(F)c3)cn2c1Br)N1CCC(c2ccccc2)C1", "note": "(stereo not drawn) [Compound 368, [3-Bromo-6-(3-fluoro-phenyl)-8-trifluoromethyl-imidazo[1,2-a]pyridin-2-yl]-(3-phenyl-pyrrolidin-1-yl)-methanone]", "values": [
      {"measurement": "inhibition at 10 µM", "result": 92.2, "unit": "%"}
    ]},
    {"compound": "O=C(NCc1cccs1)c1nc2c(Cl)cc(-c3ccccc3)cn2c1Br", "note": "[Compound 369, 3-Bromo-8-chloro-6-phenyl-imidazo[1,2-a]pyridine-2-carboxylic Acid (thiophen-2-ylmethyl)-amide]", "values": [
      {"measurement": "inhibition at 10 µM", "result": 88, "unit": "%"}
    ]},
    {"compound": "O=C(NCc1cccs1)c1nc2c(Cl)cc(-c3ccccc3)cn2c1Cl", "note": "[Compound 370, 3,8-Dichloro-6-phenyl-imidazo[1,2-a]pyridine-2-carboxylic Acid (thiophen-2-ylmethyl)-amide]", "values": [
      {"measurement": "inhibition at 10 µM", "result": 80.4, "unit": "%"}
    ]},
    {"compound": "O=C(NCc1cccs1)c1nc2c(Br)cc(-c3ccccc3)cn2c1Cl", "note": "[Compound 371, 8-Bromo-3-chloro-6-phenyl-imidazo[1,2-a]pyridine-2-carboxylic Acid (thiophen-2-ylmethyl)-amide]", "values": [
      {"measurement": "inhibition at 10 µM", "result": 78.6, "unit": "%"}
    ]},
    {"compound": "O=C(NCc1cccs1)c1nc2c(-c3ncon3)cc(-c3ccoc3)cn2c1Cl", "note": "[Compound 374, 3-Chloro-6-furan-3-yl-8-[1,2,4]oxadiazol-3-yl-imidazo[1,2-a]pyridine-2-carboxylic Acid (thiophen-2-ylmethyl)-amide]", "values": [
      {"measurement": "inhibition at 10 µM", "result": 28.6, "unit": "%"}
    ]},
    {"compound": "CCCCCc1nc(-c2cc(-c3ccoc3)cn3c(Cl)c(C(=O)NCc4cccs4)nc23)no1", "note": "[Compound 375, 3-Chloro-6-furan-3-yl-8-(5-pentyl-[1,2,4]oxadiazol-3-yl)-imidazo[1,2-a]pyridine-2-carboxylic Acid (thiophen-2-ylmethyl)-amide]", "values": [
      {"measurement": "inhibition at 10 µM", "result": 35.4, "unit": "%"}
    ]},
    {"compound": "O=C(NCc1cccs1)c1nc2c(C(F)(F)F)cc(-c3cn[nH]c3)cn2c1Br", "note": "[Compound 376, 3-Bromo-6-(1H-pyrazol-4-yl)-8-trifluoromethyl-imidazo[1,2-a]pyridine-2-carboxylic Acid(thiophen-2-ylmethyl)-amide]", "values": [
      {"measurement": "inhibition at 10 µM", "result": 98.8, "unit": "%"}
    ]},
    {"compound": "O=C(c1cn2cc(-c3cn[nH]c3)cc(C(F)(F)F)c2n1)N1CCC(c2ccccc2F)C1", "note": "(stereo not drawn) [Compound 377, [3-(2-Fluoro-phenyl)-pyrrolidin-1-yl]-[6-(1H-pyrazol-4-yl)-8-trifluoromethyl-imidazo[1,2-a]pyridin-2-yl]-methanone]", "values": [
      {"measurement": "inhibition at 10 µM", "result": 94.2, "unit": "%"}
    ]},
    {"compound": "O=C(c1cn2cc(-c3cn[nH]c3)cc(C(F)(F)F)c2n1)N1CCC(c2cccc(F)c2)C1", "note": "(stereo not drawn) [Compound 378, [3-(3-Fluoro-phenyl)-pyrrolidin-1-yl]-[6-(1H-pyrazol-4-yl)-8-trifluoromethyl-imidazo[1,2-a]pyridin-2-yl]-methanone]", "values": [
      {"measurement": "inhibition at 10 µM", "result": 86.4, "unit": "%"}
    ]},
    {"compound": "N#Cc1cc(-c2cn[nH]c2)cn2c(Cl)c(C(=O)NCc3cccs3)nc12", "note": "[Compound 379, 3-Chloro-8-cyano-6-(1H-pyrazol-4-yl)-imidazo[1,2-a]pyridine-2-carboxylic Acid (thiophen-2-ylmethyl)-amide]", "values": [
      {"measurement": "inhibition at 10 µM", "result": 80.8, "unit": "%"}
    ]},
    {"compound": "O=C(c1nc2c(C(F)(F)F)cc(-c3ccco3)cn2c1Cl)N1CCc2ccccc21", "note": "[Compound 380, (3-Chloro-6-furan-2-yl-8-trifluoromethyl-imidazo[1,2-a]pyridin-2-yl)-(2,3-dihydro-indol-1-yl)-methanone]", "values": [
      {"measurement": "inhibition at 10 µM", "result": 20.2, "unit": "%"}
    ]},
    {"compound": "O=C(c1nc2c(C(F)(F)F)cc(-c3ccoc3)cn2c1Cl)N1CCC(N2CCOCC2)C1", "note": "(stereo not drawn) [Compound 381, (3-Chloro-6-furan-3-yl-8-trifluoromethyl-imidazo[1,2-a]pyridin-2-yl)-(3-morpholin-4-yl-pyrrolidin-1-yl)-methanone]", "values": [
      {"measurement": "inhibition at 10 µM", "result": 37.9, "unit": "%"}
    ]},
    {"compound": "[H]/N=C(/NCc1cccs1)c1nc2c(C(F)(F)F)cc(-c3ccoc3)cn2c1Cl", "note": "[Compound 382, 3-Chloro-6-furan-3-yl-N-thiophen-2-ylmethyl-8-trifluoromethyl-imidazo[1,2-a]pyridine-2-carboxamidine]", "values": [
      {"measurement": "inhibition at 10 µM", "result": 65.4, "unit": "%"}
    ]},
    {"compound": "O=C(Cc1cccs1)NCc1cn2cc(-c3ccoc3)cc(C(F)(F)F)c2n1", "note": "[Compound 388, N-(6-Furan-3-yl-8-trifluoromethyl-imidazo[1,2-a]pyridin-2-ylmethyl)-2-thiophen-2-yl-acetamide]", "values": [
      {"measurement": "inhibition at 10 µM", "result": 97.2, "unit": "%"}
    ]},
    {"compound": "O=C(Cc1ccccc1)NCc1nc2c(C(F)(F)F)cc(-c3ccoc3)cn2c1Cl", "note": "[Compound 389, N-(3-Chloro-6-furan-3-yl-8-trifluoromethyl-imidazo[1,2-a]pyridin-2-ylmethyl)-2-phenyl-acetamide]", "values": [
      {"measurement": "inhibition at 10 µM", "result": 45.3, "unit": "%"}
    ]},
    {"compound": "O=C(Cc1ccccc1)NCc1cn2cc(-c3ccoc3)cc(C(F)(F)F)c2n1", "note": "[Compound 390, N-(6-Furan-3-yl-8-trifluoromethyl-imidazo[1,2-a]pyridin-2-ylmethyl)-2-phenyl-acetamide]", "values": [
      {"measurement": "inhibition at 10 µM", "result": 95.8, "unit": "%"}
    ]},
    {"compound": "O=C(NCc1ccccc1)NCc1cn2cc(-c3ccoc3)cc(C(F)(F)F)c2n1", "note": "[Compound 391, 1-Benzyl-3-(6-furan-3-yl-8-trifluoromethyl-imidazo[1,2-a]pyridin-2-ylmethyl)-urea]", "values": [
      {"measurement": "inhibition at 10 µM", "result": 99.9, "unit": "%"}
    ]},
    {"compound": "O=C(NCc1cn2cc(-c3ccoc3)cc(C(F)(F)F)c2n1)OCc1ccccc1", "note": "[Compound 393, (6-Furan-3-yl-8-trifluoromethyl-imidazo[1,2-a]pyridine-2-ylmethyl)-carbamic Acid Benzyl Ester]", "values": [
      {"measurement": "inhibition at 10 µM", "result": 0.5, "unit": "%"}
    ]},
    {"compound": "O=S(=O)(NCc1cn2cc(-c3ccoc3)cc(C(F)(F)F)c2n1)c1ccccc1", "note": "[Compound 395]", "values": [
      {"measurement": "inhibition at 10 µM", "result": 90.4, "unit": "%"}
    ]},
    {"compound": "O=S(=O)(Cc1ccccc1)NCc1cn2cc(-c3ccoc3)cc(C(F)(F)F)c2n1", "note": "[Compound 396]", "values": [
      {"measurement": "inhibition at 10 µM", "result": 94.2, "unit": "%"}
    ]},
    {"compound": "O=C(NCc1ccc(F)cc1)NCc1cn2cc(-c3ccoc3)cc(C(F)(F)F)c2n1", "note": "[Compound 397, 1-(4-Fluoro-benzyl)-3-(6-furan-3-yl-8-trifluoromethyl-imidazo[1,2-a]pyridine-2-ylmethyl)-urea]", "values": [
      {"measurement": "inhibition at 10 µM", "result": 21.9, "unit": "%"}
    ]},
    {"compound": "O=C(NCc1cccc(F)c1)NCc1cn2cc(-c3ccoc3)cc(C(F)(F)F)c2n1", "note": "[Compound 398, 1-(3-Fluoro-benzyl)-3-(6-furan-3-yl-8-trifluoromethyl-imidazo[1,2-a]pyridine-2-ylmethyl)-urea]", "values": [
      {"measurement": "inhibition at 10 µM", "result": 86.9, "unit": "%"}
    ]},
    {"compound": "O=C(NCc1cn2cc(-c3ccoc3)cc(C(F)(F)F)c2n1)NCc1ccccc1F", "note": "[Compound 399, 1-(2-Fluoro-benzyl)-3-(6-furan-3-yl-8-trifluoromethyl-imidazo[1,2-a]pyridine-2-ylmethyl)-urea]", "values": [
      {"measurement": "inhibition at 10 µM", "result": 37.7, "unit": "%"}
    ]},
    {"compound": "O=C(NCc1ccccc1F)c1nc2c(C(F)(F)F)cc(-c3ccoc3)cn2c1Cl", "note": "[Compound 402, 3-Chloro-6-furan-3-yl-8-trifluoromethyl-imidazo[1,2-a]pyridine-2-carboxylic Acid-2-fluoro-benzylamide]", "values": [
      {"measurement": "inhibition at 10 µM", "result": 94.9, "unit": "%"}
    ]},
    {"compound": "O=C(NCc1cccc(F)c1)c1nc2c(C(F)(F)F)cc(-c3ccoc3)cn2c1Cl", "note": "[Compound 403]", "values": [
      {"measurement": "inhibition at 10 µM", "result": 88.9, "unit": "%"}
    ]},
    {"compound": "O=C(NCc1ccc(F)cc1)c1nc2c(C(F)(F)F)cc(-c3ccoc3)cn2c1Cl", "note": "[Compound 404]", "values": [
      {"measurement": "inhibition at 10 µM", "result": 83.9, "unit": "%"}
    ]},
    {"compound": "O=C(NCCc1ccccc1F)c1nc2c(C(F)(F)F)cc(-c3ccoc3)cn2c1Cl", "note": "[Compound 405, 3-Chloro-6-furan-3-yl-8-trifluoromethyl-imidazo[1,2-a]-pyridine-2-carboxylic acid [2-(2-fluoro-phenyl)-ethyl]-amide]", "values": [
      {"measurement": "inhibition at 10 µM", "result": 90, "unit": "%"}
    ]},
    {"compound": "O=C(NCCc1cccc(F)c1)c1nc2c(C(F)(F)F)cc(-c3ccoc3)cn2c1Cl", "note": "[Compound 406, 3-Chloro-6-furan-3-yl-8-trifluoromethyl-imidazo[1,2-a]-pyridine-2-carboxylic acid [2-(3-fluoro-phenyl)-ethyl]-amide]", "values": [
      {"measurement": "inhibition at 10 µM", "result": 82.5, "unit": "%"}
    ]},
    {"compound": "O=C(NCCc1ccc(F)cc1)c1nc2c(C(F)(F)F)cc(-c3ccoc3)cn2c1Cl", "note": "[Compound 407, 3-Chloro-6-furan-3-yl-8-trifluoromethyl-imidazo[1,2-a]-pyridine-2-carboxylic acid [2-(4-fluoro-phenyl)-ethyl]-amide]", "values": [
      {"measurement": "inhibition at 10 µM", "result": 88, "unit": "%"}
    ]},
    {"compound": "O=C(CNC(=O)c1nc2c(C(F)(F)F)cc(-c3ccoc3)cn2c1Cl)c1cccc(F)c1", "note": "[Compound 409, 3-Chloro-6-furan-3-yl-8-trifluoromethyl-imidazo[1,2-a]pyridine-2-carboxylic Acid[2-(3-fluoro-phenyl)-2-oxo-ethyl]-amide]", "values": [
      {"measurement": "inhibition at 10 µM", "result": 46.6, "unit": "%"}
    ]},
    {"compound": "O=C(NC(c1ccccc1)c1ccccn1)c1nc2c(C(F)(F)F)cc(-c3ccoc3)cn2c1Cl", "note": "(stereo not drawn) [Compound 410, 3-Chloro-6-furan-3-yl-8-trifluoromethyl-imidazo[1,2-a]pyridine-2-carboxylic Acid (phenyl-pyridin-2-yl-methyl)-amide]", "values": [
      {"measurement": "inhibition at 10 µM", "result": 99.1, "unit": "%"}
    ]},
    {"compound": "C[C@@H](NC(=O)c1nc2c(C(F)(F)F)cc(-c3ccoc3)cn2c1Cl)c1ccccc1", "note": "[Compound 411, 3-Chloro-6-furan-3-yl-8-trifluoromethyl-imidazo[1,2-a]pyridine-2-carboxylic Acid (1-phenyl-ethyl)-amide]", "values": [
      {"measurement": "inhibition at 10 µM", "result": 74.8, "unit": "%"}
    ]},
    {"compound": "C[C@H](NC(=O)c1nc2c(C(F)(F)F)cc(-c3ccoc3)cn2c1Cl)c1ccccc1", "note": "[Compound 412, 3-Chloro-6-furan-3-yl-8-trifluoromethyl-imidazo[1,2-a]pyridine-2-carboxylic Acid (1-phenyl-ethyl)-amide]", "values": [
      {"measurement": "inhibition at 10 µM", "result": 85, "unit": "%"}
    ]},
    {"compound": "C[C@H](CNC(=O)c1nc2c(C(F)(F)F)cc(-c3ccoc3)cn2c1Cl)c1ccccc1", "note": "[Compound 414, 3-Chloro-6-furan-3-yl-8-trifluoromethyl-imidazo[1,2-a]pyridine-2-carboxylic Acid (2-phenyl-propyl)-amide]", "values": [
      {"measurement": "inhibition at 10 µM", "result": 76.3, "unit": "%"}
    ]},
    {"compound": "O=C(NCc1nccs1)c1nc2c(C(F)(F)F)cc(-c3ccoc3)cn2c1Cl", "note": "[Compound 415, 3-Chloro-3-furan-3-yl-8-trifluomethyl-imidazo[1,2-a]-pyridine-2-carboxylic Acid (thiazol-2-ylmethyl)-amide]", "values": [
      {"measurement": "inhibition at 10 µM", "result": 92.6, "unit": "%"}
    ]},
    {"compound": "N#CC1CCN(C(=O)c2nc3c(C(F)(F)F)cc(-c4ccoc4)cn3c2Cl)C1", "note": "(stereo not drawn) [Compound 416, 1-(3-Chloro-6-furan-3-yl-8-trifluoromethyl-imidazo[1,2-a]pyridine-2-carbonyl)-pyrrolidine-3-carbonitrile]", "values": [
      {"measurement": "inhibition at 10 µM", "result": 58, "unit": "%"}
    ]}
  ]
}
